Assay results from patent US20120208781A1, “AMINOGLYCOSIDE DOSING REGIMENS” (Achaogen, Inc., priority 2009, published 2012).
Converted amounts (≈) assume the structure as drawn. Like-named read-outs stand apart in the source and are kept apart here.

Columns and labels:
Enterobacter = test: MIC, further Brooklyn patient isolates: Enterobacter; format: cell-based; design: unit not given beside the values; details: Enterobacter (n = 206)
Experimental: (§1) Minimum inhibitory concentrations (MIC) were determined by reference Clinical and Laboratory Standards Institute (CLSI) broth microdilution methods per M7-A7 [2006]. Briefly, serial two-fold dilutions of Compound 1 and comparator AGs (together, “the test compounds”) were prepared at 2× concentration in appropriate diluent. The dilutions were mixed in 96-well assay plates with bacterial inoculum. Bacteria were suspended in sterile saline and added to each assay plate to obtain a final concentration of 5.5×10^5 CFU/mL. The plates were incubated at 35° C. for 20 hours in ambient air. […] After incubation, assay plates were read using a microtiter plate reader at 600 nm.
(§2) Further studies analyzed a greater number of unique patient isolates obtained from Brooklyn, N.Y. hospitals (including those species described above). These species included Acinetobacter, E. coli, Enterobacter, Klebsiella, and Pseudomonas.

E. coli = test: MIC, further Brooklyn patient isolates: E. coli; format: cell-based; design: unit not given beside the values; details: E. coli (n = 3071)
Experimental: as §1, §2

Klebsiella = test: MIC, further Brooklyn patient isolates: Klebsiella; format: cell-based; design: unit not given beside the values; details: Klebsiella (n = 1151)
Experimental: as §1, §2

hearing function = details: guinea pig, in vivo
Experimental: The ototoxicity of aminoglycosides was investigated in 28-day studies in guinea pigs (executed at MPI Research Inc., Mattawan, Mich.). […] Animals assigned to the study had body weights within ±20% of the mean body weight. The vehicle and positive control articles were administered daily for 14 days during the study via bolus subcutaneous injection in the scapular region on the back of each animal. The control group received the vehicle in the same manner as the treated groups. Individual doses were based on the most recent body weights. […] The dose levels for these studies were selected based upon published accounts of aminoglycoside ototoxicity in the guinea pig using similar dosing regimes (e.g., Brummett, A. R. et al., J. Antimicrob Chemother, 1978 May; 4 Suppl A:73-83; Kitasato, I. et al., Chemotherapy, 1990; 36(2):155-68). Doses were chosen to maximize exposure while avoiding significant nephrotoxicity, which would have confounded the analysis given that aminoglycosides are renally cleared.
Clinical observations were conducted predose (Day 1), immediately following the completion of each vehicle or positive control article administration on dosing days, and daily thereafter. Body weights were measured and recorded predose (Day 1) and daily thereafter. Physical examinations were conducted pretest and on Day 28.
Bilateral in-vivo electrophysiology (auditory brainstem response) examinations were conducted pretest and prior to the terminal necropsy. Hearing function changes were measured by comparing auditory brainstem response (ABR) values at the end of the study period versus pre-dosing values of each individual animal. […] Additional ketamine and xylazine were administered as necessary. […] Following ABR evaluations, yohimbine (1 mg/kg) was administered via intraperitoneal (IP) injection as a reversal agent. At study termination (Day 29), necropsy examinations were performed, and designated tissues were collected, examined and rated, and preserved for processing and histopathological evaluation, as described below.

K. pneumoniae (KP) = test: MIC, broth microdilution, Brooklyn hospital isolates: K. pneumoniae; format: cell-based; details: KP (n = 71)
Experimental: (§3) In another study, the activity of Compound 1 against a collection of contemporary Gram-negative bacteria was determined. Unique patient isolates of P. aeruginosa (PA), A. baumannii (AB), K. pneumoniae (KP), E. coli (EC), and Enterobacter spp. (EB) from prior surveys at 16 Brooklyn, N.Y. hospitals were selected based on resistance patterns. The majority of isolates were fingerprinted by automated ribotyping. MICs were performed by broth microdilution. PCR was used to identify aminoglycoside-modifying enzymes (AMEs) in AB and KP and the KPC gene in Enterobacteriaceae (EN). The expression of the efflux genes mexA, C, E and X in PA, and adeB in AB was assessed by real-time RT-PCR.

E. coli (EC) = test: MIC, broth microdilution, Brooklyn hospital isolates: E. coli; format: cell-based; details: EC (n = 32)
Experimental: as §3

rat kidney [1] = test: Rat nephrotoxicity model: kidney histopathology (H&E); format: in vivo, Sprague-Dawley rats; details: rats, 14 d once-daily
Experimental: This rat nephrotoxicity study design used 14 days of once-daily dosing of aminoglycosides in adult Sprague-Dawley rats. Rats were allowed full access to food and water, and aminoglycosides were dosed subcutaneously at 1 mL/kg dosing volume, formulated in water. Nephrotoxicity was assessed by monitoring changes in serum markers of glomerular filtration rate (GFR), namely blood urea nitrogen (BUN) and serum creatinine. Microscopic examination of kidney slices after fixation and hematoxylin and eosin (H&E) staining was also utilized, scoring for tubular dilation, cellular casts, interstitial inflammation, and regenerative changes to the tubules.

Enterobacter spp. (EB) = test: MIC, broth microdilution, Brooklyn hospital isolates: Enterobacter spp.; format: cell-based; details: EB (n = 30)
Experimental: as §3

P. aeruginosa (PA) = test: MIC, broth microdilution, Brooklyn hospital isolates: P. aeruginosa; format: cell-based; details: PA (n = 33)
Experimental: as §3

rat kidney [2] = test: Rat nephrotoxicity model: serum markers of GFR (BUN, serum creatinine); format: in vivo, Sprague-Dawley rats; details: dose-response for BUN elevation
[3] = system: Gram-negative and Gram-positive clinical isolates; test: MIC, CLSI broth microdilution, 235 worldwide isolates (all); format: cell-based; details: 235 isolates
From the text: In the first study, a total of 235 isolates were collected from medical centers worldwide and tested for susceptibility to Compound 1 and comparator agents by CLSI broth microdilution methods. […] Non-ENT GN pathogens included WT P. aeruginosa (PSA) and Acinetobacter spp. (ACB), and carbapenem (CARB)-R strains, including those with MBL and OXA enzymes, SA and coagulase-negative staphylococci (CoNS) included oxacillin-susceptible (MSSA/MS-CoNS) and —R (MRSA/MR-CoNS) strains.
as §1

A. baumannii (AB) = test: MIC, broth microdilution, Brooklyn hospital isolates: A. baumannii; format: cell-based; details: AB (n = 38)
Experimental: as §3

cochlear hair cells = test: Cytocochleogram analysis in 28-day guinea pig ototoxicity model; format: in vivo, guinea pigs; details: guinea pigs
Experimental: Following euthanasia and whole body intravascular perfusion with 4% paraformaldehyde, the temporal bones of the left and right ears were removed. Gross middle ear assessments were performed using a dissecting microscope. […] Following gross middle ear assessment, the cochleas of the left ear were fixed by intrascalar perfusion with 4% paraformaldehyde. Cochlea tissues of both ears were placed in 4% paraformaldehyde for approximately 1 hour. Tissues were then transferred to 0.5% paraformaldehyde, stored refrigerated, and shipped on gel packs to the Kresge Hearing Research Institute, Ann Arbor, Mich., for further processing and cytocochleogram analysis.
These guinea pig ototoxicity studies also included microscopic analysis of surgically dissected cochleas from each animal to assess hair cell damage (cytocochleograms). The underlying cause of aminoglycoside related hearing loss is damage to the hair cells of the auditory system after significant accumulation of aminoglycosides in the inner ear. In the cochlea, drug-induced hair cell loss typically progresses from the basal to the apical turns of the cochlea. Perception of high-frequency sounds, a function of the basal hair cells, is lost first; perception of low-frequency sounds, a function of the more apical hair cells, is the last to be lost (Selimoglu, E., Curr Pharm Des. 2007; 13(1):119-26). For obvious reasons, it is impractical to obtain cytocochleograms from each animal prior to dosing, and some hair cell loss is usually observed in control (vehicle dosed) animals in these guinea pig studies. This variability makes it difficult to determine whether hair cell loss observed post-treatment is due to the drug treatment, especially mild hair cell loss, […]

C[C@@H](O)[C@H]1C(=O)N2C(C(=O)O)=C(S[C@@H]3CN[C@H](C(=O)N(C)C)C3)[C@H](C)[C@H]12 [MEM, meropenem]
MIC50 (Enterobacter): ≦0.125 | MIC50 (E. coli): ≦0.125 | MIC90 (E. coli): ≦0.125 | MIC50 (Klebsiella): ≦0.125

NCC[C@H](O)C(=O)N[C@@H]1C[C@H](N)[C@@H](O[C@H]2O[C@H](CN)[C@@H](O)[C@H](O)[C@H]2O)[C@H](O)[C@H]1O[C@H]1O[C@H](CO)[C@@H](O)[C@H](N)[C@H]1O [amikacin]
clinical observations, body weights, physical examinations, macroscopic observations (hearing function): no vehicle or positive control article-related changes in any dose group | number of animals with hearing loss (hearing function; male, Crl:HA (Albino Hartley), 75 mg/kg, 14 days): 1 of 6 | number of animals with hearing loss (hearing function; male, Crl:HA (Albino Hartley), 150 mg/kg, 14 days): 2 of 6 | ABR threshold shift (hearing function; male, Crl:HA (Albino Hartley), 300 mg/kg/day, 14 days): > 15 dB | hearing loss (ABR threshold changes) (hearing function; male, Crl:HA (Albino Hartley), sc, 300 mg/kg, 14 days): hearing losses from moderate at 4 kHz, to severe at 10 kHz, and to profound at 20 kHz | Susceptible (K. pneumoniae (KP)): 58% | MIC50 (K. pneumoniae (KP); Klebsiella pneumoniae): 16 µg/mL (≈ 27.3 µM) | MIC90 (K. pneumoniae (KP); Klebsiella pneumoniae): 64 µg/mL (≈ 109 µM) | Susceptible (E. coli (EC)): 91% | MIC50 (E. coli (EC); Escherichia coli): 4 µg/mL (≈ 6.83 µM) | MIC90 (E. coli (EC); Escherichia coli): 16 µg/mL (≈ 27.3 µM) | Histopathology score (0 to 5 Scale): Casts (rat kidney [1]; 10 mg/kg): 0 +/− 0 | Histopathology score (0 to 5 Scale): Dilation (rat kidney [1]; 10 mg/kg): 0.2 +/− 0.4 | Histopathology score (0 to 5 Scale): Inflammation (rat kidney [1]; 10 mg/kg): 0.4 +/− 0.5 | Histopathology score (0 to 5 Scale): Regeneration (rat kidney [1]; 10 mg/kg): 0.2 +/− 0.4 | Histopathology score (0 to 5 Scale): Casts (rat kidney [1]; 30 mg/kg): 0 +/− 0 | Histopathology score (0 to 5 Scale): Dilation (rat kidney [1]; 30 mg/kg): 0 +/− 0 | Histopathology score (0 to 5 Scale): Inflammation (rat kidney [1]; 30 mg/kg): 0.4 +/− 0.5 | Histopathology score (0 to 5 Scale): Regeneration (rat kidney [1]; 30 mg/kg): 0.2 +/− 0.4 | Histopathology score (0 to 5 Scale): Casts (rat kidney [1]; 100 mg/kg): 0 +/− 0 | Histopathology score (0 to 5 Scale): Dilation (rat kidney [1]; 100 mg/kg): 0.2 +/− 0.4 | Histopathology score (0 to 5 Scale): Inflammation (rat kidney [1]; 100 mg/kg): 0.6 +/− 0.5 | Histopathology score (0 to 5 Scale): Regeneration (rat kidney [1]; 100 mg/kg): 0.6 +/− 0.5 | Histopathology score (0 to 5 Scale): Casts (rat kidney [1]; 300 mg/kg): 0 +/− 0 | Histopathology score (0 to 5 Scale): Dilation (rat kidney [1]; 300 mg/kg): 1.2 +/− 0.8 | Histopathology score (0 to 5 Scale): Inflammation (rat kidney [1]; 300 mg/kg): 1.2 +/− 0.4 | Histopathology score (0 to 5 Scale): Regeneration (rat kidney [1]; 300 mg/kg): 1.4 +/− 0.5 | Susceptible (Enterobacter spp. (EB)): 93% | MIC50 (Enterobacter spp. (EB); Enterobacter): 4 µg/mL (≈ 6.83 µM) | MIC90 (Enterobacter spp. (EB); Enterobacter): 16 µg/mL (≈ 27.3 µM) | Susceptible (P. aeruginosa (PA)): 94% | MIC50 (P. aeruginosa (PA); Pseudomonas aeruginosa): 4 µg/mL (≈ 6.83 µM) | MIC90 (P. aeruginosa (PA); Pseudomonas aeruginosa): 16 µg/mL (≈ 27.3 µM) | apparent relative nephrotoxicity (ranking) (rat kidney [2]): Neomycin≈Gentamicin>Tobramycin>Apramycin≈Paromomycin>Amikacin | overall sensitivity (S) [3]: 77.0% | Susceptible (A. baumannii (AB)): 82% | MIC50 (A. baumannii (AB); Acinetobacter baumannii): 8 µg/mL (≈ 13.7 µM) | MIC90 (A. baumannii (AB); Acinetobacter baumannii): 64 µg/mL (≈ 109 µM) | animals with minimal loss of outer hair cells (cochlear hair cells; 75 mg/kg/day): 3/6 | animals with minimal loss of outer hair cells (cochlear hair cells; 150 mg/kg/day): 3/6 | animals with large loss of outer hair cells (cochlear hair cells; 300 mg/kg/day): All animals | animals with some loss of inner hair cells (cochlear hair cells; 300 mg/kg/day): 3/6
